{"source": "patent US20250064957A1", "about": "“EXATECAN DERIVATIVES, LINKER-PAYLOADS, AND CONJUGATES AND THEREOF” (priority 2021, published 2025)", "format_in_all_cases": "cell-based", "key": {"[1]": {"system": "high HER2 tumor cell line SK-BR-3", "assay": "Effect of small molecules on SK-BR-3 cell proliferation (CellTiter-Glo)", "details": "SK-BR-3, 120 h incubation, relative biological activity with Dxd as control sample", "procedure": "Study Purpose: In this experiment, cell viability was detected using CellTiter-Glo to evaluate the effects of the small molecule compounds on the proliferation of a high HER2 tumor cell line SK-BR-3, and to analyze the effects of the small molecule compounds on the proliferation of tumor cells.\n• (1) Microscopic examination of cells • (2) Digestion: digested using 2 mL 0.25% trypsin for 3 minutes; • (3) Centrifuge: 1000 rpm for 5 min; • (4) Cell counting • A. Cell dilution: • B. Cell plating: in 100 μl/well • C. Incubation: 37° C., 5% CO2, overnight\n• (1) Microscopic examination • (2) Drug preparation: • A. Preparation of Buffer for preparation of samples: the desired amount of Buffer for preparation of samples was prepared using the culture medium (10% FBS) for the testing cells; • B. Sample preparation: the sample was diluted from the first concentration to the desired concentration in a 96-well deep-well Plate.\nPositive control Puromycin: A stock solution of 2.5 mg/ml was used, and diluted with the cell medium. A dilution of 250-fold was preformed, and then a dilution of 2-fold was preformed when applying the compounds to reach the testing concentration 5 μg/ml for puromycin. • (3) Application of the compounds: for each concentration of the diluted series, the compound was applied in triplicate. In 100 μl/well. • (4) After the drug was added, the cells were incubated in the incubator for 120 h.\n• (1) Preparation of detection reagents: CellTiter-Glo Luminescent Cell Viability Assay detection reagent was allowed to warm to room temperature with protection from light • (2) Cell preparation: The cells to be tested were taken out from the incubator and equilibrated at room temperature (25° C.) 30 min. • (3) ATP detection: Discard the culture medium and 100 μl/well DMEM was added, 50 μl/hole CTG was added into 96-well plate, protected from light using aluminum foil and oscillated using a vortex oscillator at room temperature of 200 rpm for 10 min. • (4) Detection procedure: After setting up the procedure, the black-wall clear-bottom plate was placed in the instrument without its cover. • (5) Data acquisition.\nGraphPad software was used to process the data. […] If necessary, the relative biological activity of sample A, i.e., ratio activity was calculated. Dxd was used as the control sample for the ratio activity calculation.\nCell proliferation inhibition rate (%)=([…])/(luminescence value of blank control group−luminescence value of puro group)×100; wherein the puro group refers to the group treated with puromycin\nR^2 Value ≥0.950; CV % between parallel pores ≤30%."}, "[2]": {"system": "NCI-N87 HER2-high cell line", "assay": "Effect of HER2-targeting conjugates on cell proliferation (CellTiter-Glo), NCI-N87", "details": "NCI-N87, 120 h", "method": "(§1) Study Purpose: Cell viability was detected by CellTiter-Glo assay to evaluate the effects of the ADCs on the proliferation of two high HER2 tumor cell lines SK-BR-3, NCI-N87 and a HER2-negative tumor cell line MDA-MB-468, and to analyze the effects of the ADCs on the proliferation of tumor cells.\n(§2) Positive control Puromycin: A stock solution of 10 mg/ml was used, and diluted with the cell medium. A dilution of 100-fold was preformed, and then a dilution of 10-fold was preformed when applying the compounds to reach the testing concentration 5 μg/ml for puromycin. • (4) Application of the compounds: for each concentration of the diluted series, the compound was applied in triplicate. […]"}, "[3]": {"system": "SK-BR-3 HER2-high cell line", "assay": "Effect of HER2-targeting conjugates on cell proliferation (CellTiter-Glo), SK-BR-3", "details": "SK-BR-3, 120 h", "method": "as §1, §2"}}}
{"smiles": "CC[C@@]1(O)C(=O)OCc2c1cc1n(c2=O)Cc2c-1nc1cc(F)c(Br)c3c1c2[C@H](NC(=O)C[C@H](C)O)CC3", "note": "[C600]", "values": [{"measurement": "Ratio activity (%)", "setting": "[1]", "value": 0.62, "unit": "%"}]}
{"smiles": "CC[C@@]1(O)C(=O)OCc2c1cc1n(c2=O)Cc2c-1nc1cc(F)c(Br)c3c1c2[C@H](NC(=O)C[C@@H](C)O)CC3", "note": "[C602]", "values": [{"measurement": "Ratio activity (%)", "setting": "[1]", "value": 0.29, "unit": "%"}]}
{"smiles": "CC[C@@]1(O)C(=O)OCc2c1cc1n(c2=O)Cc2c-1nc1cc(F)c(Cl)c3c1c2[C@@H](NC(=O)[C@H](O)C(F)(F)F)CC3", "note": "[C626]", "values": [{"measurement": "Ratio activity (%)", "setting": "[1]", "value": 0.54, "unit": "%"}]}
{"smiles": "CC[C@@]1(O)C(=O)OCc2c1cc1n(c2=O)Cc2c-1nc1cc(F)c(Cl)c3c1c2[C@@H](NC(=O)CCCO)CC3", "note": "[C679]", "values": [{"measurement": "Ratio activity (%)", "setting": "[1]", "value": 0.49, "unit": "%"}]}
{"smiles": "CC[C@@]1(O)C(=O)OCc2c1cc1n(c2=O)Cc2c-1nc1cc(F)c(Cl)c3c1c2[C@H](N)CC3", "note": "[C731]", "values": [{"measurement": "Ratio activity (%)", "setting": "[1]", "value": 0.82, "unit": "%"}]}
{"smiles": "CC[C@@]1(O)C(=O)OCc2c1cc1n(c2=O)Cc2c-1nc1cc(F)c(C)c3c1c2[C@@H](NC(=O)CO)CC3", "note": "[Dxd]", "values": [{"measurement": "Ratio activity (%)", "setting": "[1]", "value": 1, "unit": "%"}, {"measurement": "IC50", "setting": "[2]", "value": 4.68, "unit": "nM"}, {"measurement": "IC50", "setting": "[3]", "value": 1.47, "unit": "nM"}]}
